From patent US6800633B2, “Pyrrolo[2,3d]pyrimidine compositions and their use” (OSI Pharmaceuticals, Inc., priority 1998, dated 2004)
Read-outs that look alike come from different tables or passages of the source. Blank lines part the entries; values can stand above or below the compound they belong to.

Legend:
[1] = molecular target: T1, human A1 adenosine receptor (Homo sapiens, UniProt P30542); details: A1 adenosine receptor agonist; cited from earlier work
T1 sequence (P30542 1-326): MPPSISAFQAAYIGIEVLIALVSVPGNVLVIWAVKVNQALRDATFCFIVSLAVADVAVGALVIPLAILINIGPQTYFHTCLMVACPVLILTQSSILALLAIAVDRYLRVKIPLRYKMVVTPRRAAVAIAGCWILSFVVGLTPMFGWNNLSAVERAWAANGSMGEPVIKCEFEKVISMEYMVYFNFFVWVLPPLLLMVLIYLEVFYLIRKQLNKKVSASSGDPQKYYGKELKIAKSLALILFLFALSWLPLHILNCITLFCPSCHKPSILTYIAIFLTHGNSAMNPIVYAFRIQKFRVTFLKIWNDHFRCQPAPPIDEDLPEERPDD

[2] = molecular target: T2, human A2b receptor subtype (Homo sapiens, UniProt P29275); experiment: Adenosine 2b receptor subtype competition radioligand binding, [3H]DPCPX, HEK293 membranes
T2 construct: expressed in transfected cells; host or cells: HEK293
T2 sequence (P29275 1-332): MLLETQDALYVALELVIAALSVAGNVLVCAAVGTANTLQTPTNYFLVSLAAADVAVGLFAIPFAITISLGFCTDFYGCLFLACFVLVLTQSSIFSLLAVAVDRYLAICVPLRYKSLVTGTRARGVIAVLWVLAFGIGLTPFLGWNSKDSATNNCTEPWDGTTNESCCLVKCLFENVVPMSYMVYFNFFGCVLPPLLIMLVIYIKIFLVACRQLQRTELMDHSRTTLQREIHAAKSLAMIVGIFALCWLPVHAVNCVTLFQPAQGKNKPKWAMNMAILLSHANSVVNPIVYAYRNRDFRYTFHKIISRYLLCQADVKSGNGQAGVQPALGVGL

[3] = molecular target: T3, human A3 receptor subtype (Homo sapiens, UniProt P0DMS8); experiment: Adenosine 3 receptor competition radioligand binding, [125I]AB-MECA, HEK293 membranes
T3 sequence (P0DMS8 1-318): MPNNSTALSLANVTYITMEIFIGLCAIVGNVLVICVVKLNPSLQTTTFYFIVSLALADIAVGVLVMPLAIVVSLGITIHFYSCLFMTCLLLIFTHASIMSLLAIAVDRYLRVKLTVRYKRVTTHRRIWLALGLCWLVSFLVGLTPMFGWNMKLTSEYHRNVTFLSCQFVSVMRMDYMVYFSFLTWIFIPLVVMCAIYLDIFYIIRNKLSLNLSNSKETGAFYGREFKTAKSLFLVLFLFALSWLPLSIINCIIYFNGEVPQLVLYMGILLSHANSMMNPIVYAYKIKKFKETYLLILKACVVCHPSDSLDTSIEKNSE

[4] = molecular target: T4, human A1 receptor subtype (Homo sapiens, UniProt P30542)
T4 sequence (P30542 1-326): T1 sequence (P30542 1-326)

[5] = molecular target: human A2a receptor subtype (Homo sapiens, UniProt P29274); experiment: Adenosine 2a receptor subtype competition radioligand binding, [3H]CGS-21680, HEK293 membranes
[6] = molecular target: T4, human A1 receptor subtype; experiment: biochemical
[7] = Water solubility (footnote to Table 13); format: physicochemical
[8] = Table 13, read-out: Binding Ki (nm) A2b
[9] = Table 13, given as %, footnote 8: % activity @ 10 μM

Chain of human A2a receptor subtype (P29274 whole entry): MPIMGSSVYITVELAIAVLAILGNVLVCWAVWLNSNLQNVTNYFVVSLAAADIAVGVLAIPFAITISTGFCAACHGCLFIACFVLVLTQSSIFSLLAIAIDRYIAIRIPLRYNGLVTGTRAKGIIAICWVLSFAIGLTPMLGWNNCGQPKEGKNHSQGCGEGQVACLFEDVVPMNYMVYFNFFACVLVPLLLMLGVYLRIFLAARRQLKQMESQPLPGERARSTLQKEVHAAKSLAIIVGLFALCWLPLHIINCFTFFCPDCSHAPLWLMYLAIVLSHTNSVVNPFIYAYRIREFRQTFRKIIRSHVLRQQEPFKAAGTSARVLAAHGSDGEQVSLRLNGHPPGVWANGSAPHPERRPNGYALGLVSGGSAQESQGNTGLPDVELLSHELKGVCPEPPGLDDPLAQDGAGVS

- A2b binding, % activity [2, 9]: 30%
- Ki [3]: 0.0099 µM
- Ki [5]: 0.731 µM
Compound: Cc1[nH]c2nc(-c3cccs3)nc(NC3CCC(O)CC3)c2c1C (stereo not drawn) [CDS-090890, 4-(4-trans-hydroxycyclohexyl)amino-5,6-dimethyl-2-(2-thienyl)-7H-pyrrolo[2,3d]pyrimidin-4-amine]

- Ki [6]: 0.0417 µM
- Ki [3]: 0.0146 µM
Compound: CC(=O)NCCNc1nc(-c2ccccc2)nc2[nH]c(COc3ccccc3)cc12 [CDS-129851, 4-(2-acetylaminoethyl)amino-6-phenoxymethyl-2-phenyl-7H-pyrrolo[2,3d]pyrimidine]

- A3 binding, % activity @ 10 μM ([3]; Table 13, 10 μM): 54%^8
Compound: O[C@H]1CC[C@H](Nc2nc(-c3ccncc3)nc3[nH]ccc23)CC1 [CDS-131921, 4-(trans-4-hydroxycyclohexyl)amino-2-(4-pyridyl)-7H-pyrrolo[2,3d]pyrimidine]

- Ki ([2]; Table 14, read-out: Binding Data Ki (nM) A2B): 47 nM
Compound: CC(=O)NCCNc1nc(-c2ccccc2)nc2[nH]c(Cn3ccccc3=O)cc12 [CDS-143988, 4-(2-acetylaminoethyl)amino-6-(N-pyridin-2-one)methyl-2-phenyl-7H-pyrrolo[2,3d]pyrimidine]

Further lines, the compound ahead of its results:

Compound: CC(Cc1ccccc1)Nc1ncnc2c1ncn2[C@@H]1O[C@H](CO)[C@@H](O)[C@H]1O (single isomer, unassigned; (-)) [R-PIA, (−)-N6-(2-phenylisopropyl)-adenosine]
- reported affinity [1]: approximately 50 nM

Compound: Cc1[nH]c2nc(-c3ccccc3)nc(NC3CCC(O)CC3)c2c1C (stereo not shown) [CDS-046142]
- Ki [2, 8]: 138 nM
- Ki [3]: 0.0215 µM

Compound: Cc1[nH]c2nc(-c3ccccc3)nc(NC3CCC(NS(C)(=O)=O)CC3)c2c1C (stereo not shown) [CDS-056176]
- Ki ([4]; read-out: A1 Binding Ki, membranes from yeast cells transformed with human A1 receptor, [3H]DPCPX 1.0 nM): > 10 µM

Compound: CNC(=O)NCCCNc1nc(-c2ccccc2)nc2[nH]c(C)c(C)c12 [CDS-121180]
- A2a binding, % activity [5, 9]: 76%

Compound: Cc1[nH]c2nc(-c3ccccc3)nc(NCCCNC(=O)CCN)c2c1C [CDS-121181]
- Ki [2, 8]: 3400 nM
- Ki [6]: 75 µM

Compound: Cc1[nH]c2nc(-c3ccccc3)nc(NCCNC(=O)C3(N)CC3)c2c1C [CDS-123264]
- water solubility [7]: ^3water soluble;
- A1 binding, % activity [4, 9]: 30%
